Like-named read-outs stand apart in the source and are kept apart here.
Legend:
[1] = system: intracerebrally implanted L-1210; assay: Antitumor activity against intracerebrally (i.c.) implanted L-1210 in mice; type: in vivo; settings: for Survivors on day 35: groups of 8 mice; for Percent T/C: values as of 35th day
Method: Effects of the conjugate on i.c. implanted L-1210 in mice were also studied. A mouse (C3 D2 F1 /J, female, avg. wt. 20 g) was anesthesized with diethyl ether, the right parietal scalp was washed with 70 percent ethanol, a 27 G 1/2 needle with a guard placed on the outside of the barrel 1.5 mm from the top of the bevel, was inserted through the skull and 1×10^5 cells in 0.05 ml suspension were inoculated into the mouse. The conjugate in 0.9 percent NaCl (0.5 ml) was administered intraperitoneally once daily. Treatment began 24 h after implantation and continued for 5 consecutive days. Control animals received a 0.5 ml injection of saline. Testing was followed as described in the NCI protocol and evaluated by recording the survival time according to the formula appearing in protocol 11.

[2] = system: mouse leukemia L-1210 cells; assay: Antiproliferative activity in vitro, viability of L-1210 cells in culture; type: cell-based; settings: for IC50: read-out: Concentration (μM) for 50 percent loss of viability at 72 hours (ED50)
Method: The antiproliferative activity of the conjugates, ara-C, ara-CMP and the steroids was determined by measuring their effects against mouse leukemia L-1210 cells in culture. The assay was performed in test tubes without agitation according to the procedure described by Hong et al. in J. Med. Chem. 16: 139 (1973). After 24, 48 and 72 h, viable cell counts were performed on the cultures which had been incubated with compounds in various concentrations and the concentration of each compound required to produce a 50 percent inhibition of growth (ED50) after 72 h was determined by interpolation using the method described by Tritsch et al. in Cancer Biochem. Biophys. 2: 87 (1977).

[3] = system: i.p. implanted L-1210 leukemia; assay: Antitumor activity against i.p. implanted L-1210 leukemia in mice; type: in vivo; settings: for response vs control in vivo at 50 mg/kg / response vs control in vivo at 100 mg/kg / response vs control in vivo at 25 mg/kg: Mus musculus, L1210, ip; for response vs control in vivo at 50 mg/kg: read-out: Percent T/C (mean survival days treated/control × 100), 50 mg/kg/day × 5 i.p.; for response vs control in vivo at 100 mg/kg: read-out: Percent T/C (mean survival days treated/control × 100), 100 mg/kg/day × 5 i.p.
Method: The ascites cell form of L-1210 leukemia, grown in C3 D2 F1 /J female mice (supplied by Jackson Labs) were employed. The assay was performed according to National Cancer Institute (NCI) protocol 1.100 described by R. I. Gerau et al., Cancer Chemother. Rep. (Part 3) 3: (2): 7, 47 (1972) with a slight modification. Intraperitoneal implantation of 1×10^6 cells in 0.5-ml suspension to the control and the treated groups (each group comprised 8 C3 D2 F1 /J female mice, average wt 20 g) was carried out using donor mice (DBA/2Ha, supplied by Roswell Park Memorial Institute) bearing 3 day tumor growths. Compounds were dissolved in 0.9 percent NaCl and a 0.5 ml dose was administered intraperitoneally once daily. Treatment began 24 h after implantation and continued for 5 consecutive days. Control animals received a 0.5 ml injection of saline. Testing was followed as described in the NCI protocol and evaluated by recording the survival time according to the formula appearing in protocol 11.

[4] = system: i.p. implanted L1210 leukemia; assay: Comparison of conjugates and ara-C plus steroid combinations, i.p. implanted L1210 leukemic mice; type: in vivo
Method: Each mouse received 1×10^6 cells intraperitoneally. Doses were administered i.p. once daily to groups of 8 mice (avg. wt. 20 g) for 5 consecutive days beginning 24 hours after tumor implantation. In case of the combination, ara-C and the steroid were given at the same molar concentrations present in the conjugates. Mean survival days were calculated by the equation appearing in the NCI protocol; T/C ratios are reported in percent, i.e (treated/control)×100.

[5] = read-out: Percent T/C (mean survival days treated/control × 100), 25 mg/kg/day × 5 i.p.

C[C@]12CCC(=O)C=C1CC[C@@H]1[C@@H]2[C@@H](O)C[C@@]2(C)[C@H]1CC[C@]2(O)C(=O)COP(=O)(O)OC[C@H]1O[C@@H](n2ccc(N)nc2=O)[C@@H](O)[C@@H]1O [Cortisol-p-ara-C (V), 5'-(Cortisol-21-phosphoryl)-1-β-D-arabinofuranosylcytosine]
Mean Survival Days ([1]; 50 mg/kg/day × 5 i.p.): 20.50 days | body weight lost by day 11 ([1]; 50 mg/kg/day × 5 i.p.): about 4 g | weight gained over original weight (20 g) by day 20 ([1]; 50 mg/kg/day × 5 i.p.): about 1 g | Survivors on day 35 ([1]; 50 mg/kg/day × 5 i.p.): 2 | Percent T/C ([1]; 50 mg/kg/day × 5 i.p.): 227.8% | Percent T/C ([1]; 50 mg/kg/day × 5 i.p., listed as V): 228% | antiproliferative activity compared with ara-CMP and ara-C ([2]; 72 h): less active than both ara-CMP and ara-C | IC50 ([2]; Mus musculus, L1210, 72 h): 0.25 µM | Mean Survival Days, Treated ([3]; 50 mg/kg/day × 5 i.p.): 24.75 days | Mean Survival Days, Treated ([3]; 100 mg/kg/day × 5 i.p.): 14.25 days | response vs control in vivo at 50 mg/kg [3]: 287% | response vs control in vivo at 100 mg/kg [3]: 154% | Survival Days Mean (Treated) ([4]; 75.0 μmole/kg/day × 5): 24.75 days | Weight change on Day 8 (g/mouse) ([4]; 75.0 μmole/kg/day × 5 (each, for combinations)): +0.09 g/mouse | response vs control in vivo at 75 µmol/kg ([4]; Mus musculus, L1210, ip, 75.0 μmole/kg/day × 5, read-out: % T/C): 287%

C[C@]12C[C@H](O)[C@H]3[C@@H](CCC4=CC(=O)CC[C@@]43C)[C@@H]1CC[C@@H]2C(=O)COP(=O)(O)OC[C@H]1O[C@@H](n2ccc(N)nc2=O)[C@@H](O)[C@@H]1O [Corticosterone-p-ara-C]
Survival Days Mean (Treated) ([4]; 77.0 μmole/kg/day × 5): 26.50 days | Weight change on Day 8 (g/mouse) ([4]; 77.0 μmole/kg/day × 5): -0.71 g/mouse | response vs control in vivo at 77 µmol/kg ([4]; Mus musculus, L1210, ip, 77.0 μmole/kg/day × 5, read-out: % T/C): 342%

Nc1ccn([C@@H]2O[C@H](CO)[C@@H](O)[C@@H]2O)c(=O)n1 [Ara-C, 1-β-D-Arabinofuranosylcytosine, reference compound]
Mean Survival Days ([1]; 25 mg (102.8 μmol)/kg/day × 5 i.p.): 13.75 days | Survivors on day 35 ([1]; 25 mg/kg/day × 5 i.p.): 0 | Percent T/C ([1]; 25 mg/kg/day × 5 i.p.): 152.8% | Percent T/C ([1]; 25 mg/kg/day × 5 i.p., listed as ara-C): 153% | weight lost by day 14 ([1]; ara-C treated mice): about 5 g | deaths of treated mice ([1]; ara-C treated mice, by day 14): all but one of them died | IC50 ([2]; Mus musculus, L1210, 72 h): 0.1 µM | Mean Survival Days, Treated ([3]; 25 mg/kg/day × 5 i.p.): 11.00 days | Mean Survival Days, Treated ([3]; 50 mg/kg/day × 5 i.p.): 9.63 days | Percent T/C (mean survival days treated/control × 100) ([3]; 50 mg/kg/day × 5 i.p.): 110% | response vs control in vivo at 25 mg/kg [3, 5]: 128% | response vs control in vivo at 50 mg/kg [3]: 110%

C[C@]12CC[C@H]3[C@@H](CCC4=CC(=O)CC[C@@]43C)[C@@H]1CC[C@@H]2C(=O)COP(=O)(O)OC[C@H]1O[C@@H](n2ccc(N)nc2=O)[C@@H](O)[C@@H]1O [DOC-p-ara-C]
Survival Days Mean (Treated) ([4]; 78.7 μmole/kg/day × 5): 21.38 days | Weight change on Day 8 (g/mouse) ([4]; 78.7 μmole/kg/day × 5): -0.94 g/mouse | response vs control in vivo at 78.7 µmol/kg ([4]; Mus musculus, L1210, ip, 78.7 μmole/kg/day × 5, read-out: % T/C): 238%

CC12CCC(=O)C=C1CCC1C3CCC(O)(C(=O)COP(=O)(O)OCC4OC(n5ccc(N)nc5=O)C(O)C4O)C3(C)CC(O)C12F (centres unmarked) [Fludrocortisone-p-ara-C]
Survival Days Mean (Treated) ([4]; 36.46 μmole/kg/day × 5): 14.30 days | Weight change on Day 8 (g/mouse) ([4]; 36.46 μmole/kg/day × 5): -1.09 g/mouse | response vs control in vivo at 36.46 µmol/kg ([4]; Mus musculus, L1210, ip, 36.46 μmole/kg/day × 5, read-out: % T/C): 159%

C[C@]12C=CC(=O)C=C1CC[C@@H]1[C@@H]2[C@@H](O)C[C@@]2(C)[C@H]1CC[C@]2(O)C(=O)CO [Prednisolone, 11β,17α,21-trihydroxy-1,4-pregnadiene-3,20-dione, reference compound]
response vs control in vivo at 25 mg/kg [3, 5]: 133%

C[C@@H]1C[C@H]2[C@@H]3CCC4=CC(=O)C=C[C@]4(C)[C@@]3(F)[C@@H](O)C[C@]2(C)[C@@]1(O)C(=O)COP(=O)(O)OC[C@H]1O[C@@H](n2ccc(N)nc2=O)[C@@H](O)[C@@H]1O [DXM-p-ara-C (III), 5'-(Dexamethasone-21-phosphoryl)-1-β-D-arabinofuranosylcytosine]
antiproliferative activity compared with ara-CMP and ara-C ([2]; 72 h): activity comparable to ara-CMP | IC50 ([2]; Mus musculus, L1210, 72 h): 0.08 µM | toxicity ([3]; 50 mg (71.7 μmol)/kg/day): showed some toxicity | Mean Survival Days, Treated ([3]; 50 mg/kg/day × 5 i.p.): 13.50 days | Percent T/C (mean survival days treated/control × 100) ([3]; 50 mg/kg/day × 5 i.p.): 150% | response vs control in vivo at 50 mg/kg [3]: 150% | Survival Days Mean (Treated) ([4]; 36.0 μmole/kg/day × 5): 11.50 days | Weight change on Day 8 (g/mouse) ([4]; 36.0 μmole/kg/day × 5): -1.03 g/mouse | Survival Days Mean (Treated) ([4]; 71.7 μmole/kg/day × 5): 13.50 days | Weight change on Day 8 (g/mouse) ([4]; 71.7 μmole/kg/day × 5): -1.50 g/mouse | response vs control in vivo at 36 µmol/kg ([4]; Mus musculus, L1210, ip, 36.0 μmole/kg/day × 5, read-out: % T/C): 128% | response vs control in vivo at 71.7 µmol/kg ([4]; Mus musculus, L1210, ip, 71.7 μmole/kg/day × 5, read-out: % T/C): 150%

C[C@H]1C[C@@H]2[C@H]([C@@H](O)C[C@@]3(C)[C@H]2CC[C@]3(O)C(=O)COP(=O)(O)OC[C@H]2O[C@H](n3ccc(N)nc3=O)[C@@H](O)[C@@H]2O)[C@@]2(C)C=CC(=O)C=C12 [MePred-p-ara-C (IV), 5'-(6α-Methylprednisolone-21-phosphoryl)-1-α-D-arabinofuranosylcytosine]
antiproliferative activity compared with ara-CMP and ara-C ([2]; 72 h): activity comparable to ara-CMP | IC50 ([2]; 72 h): 0.05 µM | % T/C ([4]; 74.0 μmole/kg/day × 5): 246.8% | Survival Days Mean (Treated) ([4]; 74.0 μmole/kg/day × 5): 19.13 days | Survival Days Range ([4]; 74.0 μmole/kg/day × 5): 14 to 24 days | Weight change on Day 8 (g/mouse) ([4]; 74.0 μmole/kg/day × 5): -1.08 g/mouse

C[C@]12CCC(=O)C=C1CC[C@@H]1[C@@H]2C(=O)C[C@@]2(C)[C@H]1CC[C@]2(O)C(=O)COP(=O)(O)OC[C@H]1O[C@@H](n2ccc(N)nc2=O)[C@@H](O)[C@@H]1O [Cortisone-p-ara-C (VI), 5'-(Cortisone-21-phosphoryl)-1-β-D-arabinofuranosylcytosine]
antiproliferative activity compared with ara-CMP and ara-C ([2]; 72 h): activity comparable to ara-CMP | IC50 ([2]; Mus musculus, L1210, 72 h): 0.07 µM | Mean Survival Days, Treated ([3]; 50 mg/kg/day × 5 i.p.): 20.14 days | response vs control in vivo at 50 mg/kg [3]: 224% | Survival Days Mean (Treated) ([4]; 75.1 μmole/kg/day × 5): 21.43 days | Weight change on Day 8 (g/mouse) ([4]; 75.1 μmole/kg/day × 5): -0.07 g/mouse | response vs control in vivo at 75.1 µmol/kg ([4]; Mus musculus, L1210, ip, 75.1 μmole/kg/day × 5, read-out: % T/C): 238%

C[C@]12C=CC(=O)C=C1CC[C@@H]1[C@@H]2C(=O)C[C@@]2(C)[C@H]1CC[C@]2(O)C(=O)CO [prednisone, 17α,21-dihydroxy-1,4-pregnadiene-3,11,20-trione, reference compound]
response vs control in vivo at 25 mg/kg ([3]; 25 mg/kg/day × 5 i.p., read-out: Percent T/C (mean survival days treated/control × 100)): 133%

Nc1ccn([C@@H]2O[C@H](COP(=O)(O)O)[C@@H](O)[C@@H]2O)c(=O)n1 [Ara-CMP, reference compound]
IC50 ([2]; Mus musculus, L1210, 72 h): 0.05 µM | Mean Survival Days, Treated ([3]; 50 mg/kg/day × 5 i.p.): 9.13 days | Mean Survival Days, Treated ([3]; 100 mg/kg/day × 5 i.p.): 11.00 days | response vs control in vivo at 50 mg/kg [3]: 104% | response vs control in vivo at 100 mg/kg [3]: 122%
